From PubChem BioAssay (NCI)
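96-well plates; 48 h exposure; 5 concentrations. Endpoints by linear interpolation between flanking doses. Not reached: highest tested concentration assigned. TGI: concentration producing complete growth inhibition.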

What was measured:
Assay in all cases: inhibition of tumour cell growth, NCI panel, 48 h
SR leukemia = test system: SR leukemia
OVCAR-8 ovarian = test system: OVCAR-8 ovarian
NCI-H226 lung = test system: NCI-H226 lung
A549 NSCLC = test system: A549 NSCLC
MCF7 breast = test system: MCF7 breast
SK-MEL-28 melanoma = test system: SK-MEL-28 melanoma
HOP-92 NSCLC = test system: HOP-92 NSCLC
UACC-257 melanoma = test system: UACC-257 melanoma
SW-620 colon = test system: SW-620 colon
OVCAR-5 ovarian = test system: OVCAR-5 ovarian
HCT-15 colon = test system: HCT-15 colon
RPMI-8226 leukemia = test system: RPMI-8226 leukemia
UO-31 renal = test system: UO-31 renal
SNB-19 CNS = test system: SNB-19 CNS
SF-539 CNS = test system: SF-539 CNS
MOLT-4 leukemia = test system: MOLT-4 leukemia
CCRF-CEM leukemia = test system: CCRF-CEM leukemia
LOX IMVI melanoma = test system: LOX IMVI melanoma
HCT-116 colon = test system: HCT-116 colon
PC-3 prostate = test system: PC-3 prostate

SMILES | TGI (SR leukemia) | TGI (OVCAR-8 ovarian) | TGI (NCI-H226 lung) | TGI (A549 NSCLC) | TGI (MCF7 breast) | TGI (SK-MEL-28 melanoma) | TGI (HOP-92 NSCLC) | TGI (UACC-257 melanoma) | TGI (SW-620 colon) | TGI (OVCAR-5 ovarian) | TGI (HCT-15 colon) | TGI (RPMI-8226 leukemia) | TGI (UO-31 renal) | TGI (SNB-19 CNS) | TGI (SF-539 CNS) | TGI (MOLT-4 leukemia) | TGI (CCRF-CEM leukemia) | TGI (LOX IMVI melanoma) | TGI (HCT-116 colon) | TGI (PC-3 prostate)
CC(=O)O/C(=C1\C[C@H]2[C@@H]3CC=C4C[C@@H](OC(C)=O)CC[C@]4(C)[C@H]3CC[C@]2(C)C1=O)C(F)(F)F | 10.9 µM | 16.8 µM | 40.7 µM | 36.8 µM | 17.8 µM | 31.9 µM | 17.7 µM | 15.1 µM | 19.8 µM | 58.6 µM | 17.6 µM | 15.8 µM | 32.1 µM | 40.6 µM | 15.2 µM | 7.37 µM | 13.9 µM | 5.17 µM | 18.8 µM | 27.3 µM
COc1cc(N=Nc2cccc(S(=O)(=O)O)c2)ccc1N=Nc1ccc(/C=C/c2ccc(-n3on3-c3ccc(/C=C/c4ccc(N=Nc5ccc(N=Nc6cccc(S(=O)(=O)O)c6)cc5OC)cc4S(=O)(=O)O)c(S(=O)(=O)O)c3)cc2S(=O)(=O)O)c(S(=O)(=O)O)c1 |  | > 100 µM | > 100 µM | > 100 µM | > 100 µM | > 100 µM | > 100 µM | > 100 µM | > 100 µM | > 100 µM | > 100 µM | > 100 µM | > 100 µM | > 100 µM | > 100 µM | > 100 µM | > 100 µM | > 100 µM | > 100 µM | 
N#CC(OC1OC(COC2OC(CO)C(O)C(O)C2O)C(O)C(O)C1O)c1ccccc1 (stereo not drawn) |  | > 225 µM | > 225 µM | > 225 µM | > 225 µM | > 225 µM | > 225 µM | > 225 µM | > 225 µM | > 225 µM | > 225 µM | > 225 µM | > 225 µM | > 225 µM | > 225 µM | > 225 µM | > 225 µM | > 225 µM | > 225 µM | 
CN1C(=O)CSC1=S | > 100 µM | > 100 µM | > 100 µM | > 100 µM |  | > 100 µM | > 100 µM | > 100 µM | > 100 µM | > 100 µM | > 100 µM | > 100 µM | > 100 µM |  | > 100 µM | > 100 µM | > 100 µM | > 100 µM | > 100 µM | 
COc1cccc2cc(C(=O)O)c(=O)oc12 | > 100 µM | > 100 µM | > 100 µM | > 100 µM | > 100 µM | > 100 µM | > 100 µM | > 100 µM | > 100 µM | > 100 µM | > 100 µM | > 100 µM | > 100 µM | > 100 µM | > 100 µM | > 100 µM | > 100 µM | > 100 µM | > 100 µM | > 100 µM
O=C(O)C1C2C=CC(C2)C1c1ccccc1 (stereo not drawn) | > 100 µM | > 100 µM | > 100 µM | > 100 µM | > 100 µM | > 100 µM | > 100 µM | > 100 µM | > 100 µM | > 100 µM | > 100 µM | > 100 µM | > 100 µM | > 100 µM | > 100 µM | > 100 µM | > 100 µM | > 100 µM | > 100 µM | > 100 µM
